According to BigSolDB 2.1:

CC(=O)N1CCN(c2ccc(OC[C@@H]3CO[C@@](Cn4ccnc4)(c4ccc(Cl)cc4Cl)O3)cc2)CC1 (racemic)
solubility (mole fraction)
Conditions | 293.2 K | 298.2 K | 303.2 K | 308.2 K | 313.2 K
in NMP | 0.0212 | 0.0242 | 0.0271 | 0.0301 | 0.0333
in ethanol | 0.00235 | 0.00299 | 0.00361 | 0.00438 | 0.00527
